Measured values taken from the supplement of paper PMC10307832.

Columns and labels:
Assay in all cases: relative viability (nuclei count vs DMSO), 5 days (fraction); higher = more cells survive
EMC-BAC-2 = test system: EMC-BAC-2
Procedure, shortened: (§1)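 Dosing by pin tool came one day after lung cancer cell lines were seeded in 1536-well plates, using either one drug or a fixed anchor-drug dose plus five library-drug doses (not always all listed) in √10 steps. After 5 days, nuclei were counted on 4× images. Relative viability is treated-well nuclei count divided by vehicle-well nuclei count, and values are medians of duplicate plates.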

NCI-H23 = test system: NCI-H23
Procedure, shortened: as §1

BEN = test system: BEN
Procedure, shortened: as §1

NCI-H2023 = test system: NCI-H2023
Procedure, shortened: as §1

NCI-H647 = test system: NCI-H647
Procedure, shortened: as §1

NCI-H2009 = test system: NCI-H2009
Procedure, shortened: as §1

NCI-H2126 = test system: NCI-H2126
Procedure, shortened: as §1

NCI-H838 = test system: NCI-H838
Procedure, shortened: as §1

NCI-H3122 = test system: NCI-H3122
Procedure, shortened: as §1

HARA = test system: HARA
Procedure, shortened: as §1

201T = test system: 201T
Procedure, shortened: as §1

NCI-H1666 = test system: NCI-H1666
Procedure, shortened: as §1

NCI-H1395 = test system: NCI-H1395
Procedure, shortened: as §1

NCI-H727 = test system: NCI-H727
Procedure, shortened: as §1

NCI-H2347 = test system: NCI-H2347
Procedure, shortened: as §1

LCLC-103H = test system: LCLC-103H
Procedure, shortened: as §1

HCC-44 = test system: HCC-44
Procedure, shortened: as §1

NCI-H2087 = test system: NCI-H2087
Procedure, shortened: as §1

NCI-H1993 = test system: NCI-H1993
Procedure, shortened: as §1

NCI-H650 = test system: NCI-H650
Procedure, shortened: as §1

NCI-H441 = test system: NCI-H441
Procedure, shortened: as §1

NCI-H596 = test system: NCI-H596
Procedure, shortened: as §1

LOU-NH91 = test system: LOU-NH91
Procedure, shortened: as §1

Which relative viability (EMC-BAC-2; first compound 0.08 µM) does the source give for `Oc1nc(-c2ccc(C(F)(F)F)cc2)nc2c1CSCC2` [XAV939] + Cc1cc(Nc2cc(N3CCN(C)CC3)nc(Sc3ccc(NC(=O)C4CC4)cc3)n2)n[nH]1 [Tozasertib] (partner 0.1 µM) here?
Its relative viability is 0.272.

What about the relative viability (EMC-BAC-2; first compound 0.253 µM) of the same compound?
The relative viability was 0.283.

What about the relative viability (EMC-BAC-2; first compound 0.8 µM) of the same compound?
Its relative viability is 0.259.

What about the relative viability (EMC-BAC-2; first compound 2.53 µM) of the same compound?
The relative viability was 0.201.

What about the relative viability (NCI-H23; first compound 0.08 µM) of the same compound?
Its relative viability is 0.403.

And the relative viability (NCI-H23; first compound 0.253 µM)?
Its relative viability is 0.373.

And the relative viability (NCI-H23; first compound 0.8 µM)?
The relative viability was 0.343.

And the relative viability (NCI-H23; first compound 2.53 µM)?
Its relative viability is 0.357.

What about the relative viability (BEN; first compound 0.08 µM) of the same compound?
The relative viability was 0.579.

What about the relative viability (BEN; first compound 0.253 µM) of the same compound?
The relative viability was 0.451.

What about the relative viability (BEN; first compound 0.8 µM) of the same compound?
The relative viability was 0.542.

And the relative viability (BEN; first compound 2.53 µM)?
Its relative viability is 0.444.

And the relative viability (NCI-H2023; first compound 0.08 µM)?
The relative viability was 0.391.

And the relative viability (NCI-H2023; first compound 0.253 µM)?
Its relative viability is 0.334.

What about the relative viability (NCI-H2023; first compound 0.8 µM) of the same compound?
The relative viability was 0.278.

And the relative viability (NCI-H2023; first compound 2.53 µM)?
The relative viability was 0.226.

And the relative viability (NCI-H647; first compound 0.08 µM)?
Its relative viability is 0.288.

What about the relative viability (NCI-H647; first compound 0.253 µM) of the same compound?
Its relative viability is 0.217.

What about the relative viability (NCI-H647; first compound 0.8 µM) of the same compound?
Its relative viability is 0.262.

And the relative viability (NCI-H647; first compound 2.53 µM)?
The relative viability was 0.146.

What about the relative viability (NCI-H2009; first compound 0.08 µM) of the same compound?
Its relative viability is 0.84.

What about the relative viability (NCI-H2009; first compound 0.253 µM) of the same compound?
Its relative viability is 0.66.

What about the relative viability (NCI-H2009; first compound 0.8 µM) of the same compound?
Its relative viability is 0.713.

And the relative viability (NCI-H2009; first compound 2.53 µM)?
Its relative viability is 0.647.

What about the relative viability (NCI-H2126; first compound 0.08 µM) of the same compound?
The relative viability was 0.791.

And the relative viability (NCI-H2126; first compound 0.253 µM)?
Its relative viability is 0.774.

What about the relative viability (NCI-H2126; first compound 0.8 µM) of the same compound?
The relative viability was 0.778.

What about the relative viability (NCI-H2126; first compound 2.53 µM) of the same compound?
Its relative viability is 0.651.

And the relative viability (NCI-H838; first compound 0.08 µM)?
The relative viability was 0.274.

And the relative viability (NCI-H838; first compound 0.253 µM)?
The relative viability was 0.259.

And the relative viability (NCI-H838; first compound 0.8 µM)?
Its relative viability is 0.276.

What about the relative viability (NCI-H838; first compound 2.53 µM) of the same compound?
Its relative viability is 0.209.

What about the relative viability (NCI-H3122; first compound 0.08 µM) of the same compound?
Its relative viability is 0.569.

What about the relative viability (NCI-H3122; first compound 0.253 µM) of the same compound?
The relative viability was 0.407.

And the relative viability (NCI-H3122; first compound 0.8 µM)?
Its relative viability is 0.389.

What about the relative viability (NCI-H3122; first compound 2.53 µM) of the same compound?
The relative viability was 0.337.

What about the relative viability (HARA; first compound 0.08 µM) of the same compound?
Its relative viability is 0.107.

And the relative viability (HARA; first compound 0.253 µM)?
The relative viability was 0.0774.

And the relative viability (HARA; first compound 0.8 µM)?
The relative viability was 0.102.

What about the relative viability (HARA; first compound 2.53 µM) of the same compound?
The relative viability was 0.103.

What about the relative viability (201T; first compound 0.08 µM) of the same compound?
The relative viability was 0.99.

What about the relative viability (201T; first compound 0.253 µM) of the same compound?
The relative viability was 0.763.

What about the relative viability (201T; first compound 0.8 µM) of the same compound?
The relative viability was 0.812.

What about the relative viability (201T; first compound 2.53 µM) of the same compound?
Its relative viability is 0.755.

And the relative viability (NCI-H1666; first compound 0.08 µM)?
The relative viability was 0.576.

And the relative viability (NCI-H1666; first compound 0.253 µM)?
The relative viability was 0.565.

What about the relative viability (NCI-H1666; first compound 0.8 µM) of the same compound?
Its relative viability is 0.599.

And the relative viability (NCI-H1666; first compound 2.53 µM)?
Its relative viability is 0.582.

What about the relative viability (NCI-H1395; first compound 0.08 µM) of the same compound?
The relative viability was 0.716.

What about the relative viability (NCI-H1395; first compound 0.253 µM) of the same compound?
Its relative viability is 0.651.

And the relative viability (NCI-H1395; first compound 0.8 µM)?
Its relative viability is 0.797.

What about the relative viability (NCI-H1395; first compound 2.53 µM) of the same compound?
The relative viability was 0.632.

And the relative viability (NCI-H727; first compound 0.08 µM)?
Its relative viability is 0.69.

And the relative viability (NCI-H727; first compound 0.253 µM)?
Its relative viability is 0.543.

And the relative viability (NCI-H727; first compound 0.8 µM)?
Its relative viability is 0.769.

What about the relative viability (NCI-H727; first compound 2.53 µM) of the same compound?
Its relative viability is 0.62.

And the relative viability (NCI-H2347; first compound 0.08 µM)?
Its relative viability is 0.613.

And the relative viability (NCI-H2347; first compound 2.53 µM)?
Its relative viability is 0.388.

And the relative viability (LCLC-103H; first compound 0.08 µM)?
Its relative viability is 0.576.

And the relative viability (LCLC-103H; first compound 0.253 µM)?
Its relative viability is 0.402.

What about the relative viability (LCLC-103H; first compound 0.8 µM) of the same compound?
The relative viability was 0.444.

And the relative viability (LCLC-103H; first compound 2.53 µM)?
Its relative viability is 0.504.

And the relative viability (HCC-44; first compound 0.08 µM)?
The relative viability was 1.46.

What about the relative viability (HCC-44; first compound 0.253 µM) of the same compound?
Its relative viability is 0.799.

And the relative viability (HCC-44; first compound 0.8 µM)?
The relative viability was 0.996.

And the relative viability (HCC-44; first compound 2.53 µM)?
The relative viability was 0.789.

And the relative viability (NCI-H2087; first compound 0.08 µM)?
Its relative viability is 0.234.

And the relative viability (NCI-H2087; first compound 0.253 µM)?
Its relative viability is 0.231.

What about the relative viability (NCI-H2087; first compound 0.8 µM) of the same compound?
Its relative viability is 0.256.

And the relative viability (NCI-H2087; first compound 2.53 µM)?
Its relative viability is 0.181.

And the relative viability (NCI-H1993; first compound 0.08 µM)?
Its relative viability is 0.559.

And the relative viability (NCI-H1993; first compound 0.253 µM)?
The relative viability was 0.605.

And the relative viability (NCI-H1993; first compound 0.8 µM)?
Its relative viability is 0.551.

And the relative viability (NCI-H1993; first compound 2.53 µM)?
The relative viability was 0.59.

What about the relative viability (NCI-H650; first compound 0.08 µM) of the same compound?
Its relative viability is 0.883.

And the relative viability (NCI-H650; first compound 0.253 µM)?
The relative viability was 0.691.

And the relative viability (NCI-H650; first compound 0.8 µM)?
The relative viability was 0.646.

What about the relative viability (NCI-H650; first compound 2.53 µM) of the same compound?
Its relative viability is 0.611.

What about the relative viability (NCI-H441; first compound 0.08 µM) of the same compound?
The relative viability was 0.818.

What about the relative viability (NCI-H441; first compound 0.253 µM) of the same compound?
Its relative viability is 0.573.

And the relative viability (NCI-H441; first compound 0.8 µM)?
The relative viability was 0.71.

And the relative viability (NCI-H441; first compound 2.53 µM)?
The relative viability was 0.601.

What about the relative viability (NCI-H596; first compound 0.08 µM) of the same compound?
The relative viability was 0.915.

And the relative viability (NCI-H596; first compound 0.253 µM)?
Its relative viability is 0.798.

What about the relative viability (NCI-H596; first compound 0.8 µM) of the same compound?
Its relative viability is 1.07.

What about the relative viability (NCI-H596; first compound 2.53 µM) of the same compound?
The relative viability was 0.939.

And the relative viability (LOU-NH91; first compound 0.08 µM)?
The relative viability was 0.655.

What about the relative viability (LOU-NH91; first compound 0.253 µM) of the same compound?
Its relative viability is 0.663.

And the relative viability (LOU-NH91; first compound 0.8 µM)?
Its relative viability is 0.637.

And the relative viability (LOU-NH91; first compound 2.53 µM)?
The relative viability was 0.695.
